Bridge positions count the residues as written; N and C are the ends. Ends that are not written are not given here.
Tested on: patients with chronic idiopathic constipation (CIC)
Assay: Second phase 3 CIC trial: change from baseline in stool consistency (BSFS)
Assay type: in vivo, human
[1] = 3 mg, Week 7, All Randomized (includes Duplicate Patients)
[2] = 3 mg, Week 7, ITT Population-Excluding Duplicate Patients
[3] = 3 mg, Week 8, All Randomized (includes Duplicate Patients)
[4] = 3 mg, Week 8, ITT Population-Excluding Duplicate Patients
[5] = 3 mg, Week 9, All Randomized (includes Duplicate Patients)
[6] = 3 mg, Week 9, ITT Population-Excluding Duplicate Patients
[7] = 3 mg, Week 10, All Randomized (includes Duplicate Patients)
[8] = 3 mg, Week 10, ITT Population-Excluding Duplicate Patients
[9] = 3 mg, Week 11, All Randomized (includes Duplicate Patients)
[10] = 3 mg, Week 11, ITT Population-Excluding Duplicate Patients
[11] = 3 mg, Week 12, All Randomized (includes Duplicate Patients)
[12] = 3 mg, Week 12, ITT Population-Excluding Duplicate Patients
[13] = 3 mg, overall average estimate across the 12-week treatment period, All Randomized (includes Duplicate Patients)
[14] = 3 mg, overall average estimate across the 12-week treatment period, ITT Population
[15] = 3 mg, overall average estimate across the 12-week treatment period, ITT Population-Excluding Duplicate Patients
[16] = 6 mg, Post-Treatment Week 13, All Randomized (includes Duplicate Patients)
[17] = 6 mg, Post-Treatment Week 13, ITT Population
[18] = 6 mg, Post-Treatment Week 13, ITT Population-Excluding Duplicate Patients
[19] = 6 mg, Post-Treatment Week 14, All Randomized (includes Duplicate Patients)
[20] = 6 mg, Post-Treatment Week 14, ITT Population

## Asn^1-Asp^2-Glu^3-Cys^4-Glu^5-Leu^6-Cys^7-Val^8-Asn^9-Val^10-Ala^11-Cys^12-Thr^13-Gly^14-Cys^15-Leu^16 (NDECELCVNVACTGCL; disulfide 4-12, 7-15) [Plecanatide, uroguanylin analogue, guanylate cyclase-C agonist; (C4:C12, C7:C15) bicycle peptide]
[1]
  Change from Baseline in Stool Consistency, Difference from Placebo: 0.60
  Change from Baseline in Stool Consistency, LS Mean (SE): 1.46 (0.072)
3 mg, Week 7, ITT Population
  Change from Baseline in Stool Consistency, Difference from Placebo: 0.60
  Change from Baseline in Stool Consistency, LS Mean (SE): 1.49 (0.074)
  Change from Baseline in Stool Consistency, Mean (SD): 1.58 (1.447)
[2]
  Change from Baseline in Stool Consistency, Difference from Placebo: 0.61
  Change from Baseline in Stool Consistency, LS Mean (SE): 1.50 (0.075)
  Change from Baseline in Stool Consistency, Mean (SD): 1.60 (1.452)
[3]
  Change from Baseline in Stool Consistency, Difference from Placebo: 0.67
  Change from Baseline in Stool Consistency, LS Mean (SE): 1.58 (0.072)
3 mg, Week 8, ITT Population
  Change from Baseline in Stool Consistency, Difference from Placebo: 0.66
  Change from Baseline in Stool Consistency, LS Mean (SE): 1.60 (0.075)
  Change from Baseline in Stool Consistency, Mean (SD): 1.71 (1.496)
[4]
  Change from Baseline in Stool Consistency, Difference from Placebo: 0.67
  Change from Baseline in Stool Consistency, LS Mean (SE): 1.60 (0.075)
  Change from Baseline in Stool Consistency, Mean (SD): 1.71 (1.500)
[5]
  Change from Baseline in Stool Consistency, Difference from Placebo: 0.68
  Change from Baseline in Stool Consistency, LS Mean (SE): 1.55 (0.073)
3 mg, Week 9, ITT Population
  Change from Baseline in Stool Consistency, Difference from Placebo: 0.68
  Change from Baseline in Stool Consistency, LS Mean (SE): 1.57 (0.075)
  Change from Baseline in Stool Consistency, Mean (SD): 1.68 (1.468)
[6]
  Change from Baseline in Stool Consistency, Difference from Placebo: 0.66
  Change from Baseline in Stool Consistency, LS Mean (SE): 1.57 (0.076)
  Change from Baseline in Stool Consistency, Mean (SD): 1.68 (1.468)
[7]
  Change from Baseline in Stool Consistency, Difference from Placebo: 0.62
  Change from Baseline in Stool Consistency, LS Mean (SE): 1.52 (0.073)
3 mg, Week 10, ITT Population
  Change from Baseline in Stool Consistency, Difference from Placebo: 0.61
  Change from Baseline in Stool Consistency, LS Mean (SE): 1.54 (0.075)
  Change from Baseline in Stool Consistency, Mean (SD): 1.65 (1.539)
[8]
  Change from Baseline in Stool Consistency, Difference from Placebo: 0.61
  Change from Baseline in Stool Consistency, LS Mean (SE): 1.54 (0.076)
  Change from Baseline in Stool Consistency, Mean (SD): 1.65 (1.548)
[9]
  Change from Baseline in Stool Consistency, Difference from Placebo: 0.55
  Change from Baseline in Stool Consistency, LS Mean (SE): 1.48 (0.073)
3 mg, Week 11, ITT Population
  Change from Baseline in Stool Consistency, Difference from Placebo: 0.54
  Change from Baseline in Stool Consistency, LS Mean (SE): 1.50 (0.075)
  Change from Baseline in Stool Consistency, Mean (SD): 1.58 (1.598)
[10]
  Change from Baseline in Stool Consistency, Difference from Placebo: 0.54
  Change from Baseline in Stool Consistency, LS Mean (SE): 1.51 (0.076)
  Change from Baseline in Stool Consistency, Mean (SD): 1.59 (1.595)
[11]
  Change from Baseline in Stool Consistency, Difference from Placebo: 0.57
  Change from Baseline in Stool Consistency, LS Mean (SE): 1.57 (0.073)
3 mg, Week 12, ITT Population
  Change from Baseline in Stool Consistency, Difference from Placebo: 0.58
  Change from Baseline in Stool Consistency, LS Mean (SE): 1.60 (0.075)
  Change from Baseline in Stool Consistency, Mean (SD): 1.69 (1.480)
[12]
  Change from Baseline in Stool Consistency, Difference from Placebo: 0.58
  Change from Baseline in Stool Consistency, LS Mean (SE): 1.61 (0.076)
  Change from Baseline in Stool Consistency, Mean (SD): 1.70 (1.476)
[13]
  Change from Baseline in Stool Consistency, Difference from Placebo: 0.63
  Change from Baseline in Stool Consistency, LS Mean (SE): 1.48 (0.058)
[14]
  Change from Baseline in Stool Consistency, Difference from Placebo: 0.62
  Change from Baseline in Stool Consistency, LS Mean (SE): 1.49 (0.060)
[15]
  Change from Baseline in Stool Consistency, Difference from Placebo: 0.62
  Change from Baseline in Stool Consistency, LS Mean (SE): 1.50 (0.061)
[16]
  Change from Baseline in Stool Consistency, Difference from Placebo: 0.09
  Change from Baseline in Stool Consistency, LS Mean (SE): 1.08 (0.070)
  Change from Baseline in Stool Consistency, Mean (SD): 1.03 (1.408)
[17]
  Change from Baseline in Stool Consistency, Difference from Placebo: 0.09
  Change from Baseline in Stool Consistency, LS Mean (SE): 1.08 (0.071)
  Change from Baseline in Stool Consistency, Mean (SD): 1.04 (1.410)
[18]
  Change from Baseline in Stool Consistency, Difference from Placebo: 0.09
  Change from Baseline in Stool Consistency, LS Mean (SE): 1.08 (0.072)
  Change from Baseline in Stool Consistency, Mean (SD): 1.04 (1.414)
[19]
  Change from Baseline in Stool Consistency, Difference from Placebo: 0.07
  Change from Baseline in Stool Consistency, LS Mean (SE): 1.06 (0.072)
  Change from Baseline in Stool Consistency, Mean (SD): 1.04 (1.393)
[20]
  Change from Baseline in Stool Consistency, Difference from Placebo: 0.06
  Change from Baseline in Stool Consistency, LS Mean (SE): 1.07 (0.074)
  Change from Baseline in Stool Consistency, Mean (SD): 1.06 (1.354)
6 mg, Post-Treatment Week 14, ITT Population-Excluding Duplicate Patients
  Change from Baseline in Stool Consistency, Difference from Placebo: 0.06

Reference: patent publication US20160367623A1, “AGONISTS OF GUANYLATE CYCLASE USEFUL FOR THE TREATMENT OF GASTROINTESTINAL DISORDERS, INFLAMMATION, CANCER AND OTHER DISORDERS” (priority 2015, published 2016)
